In ChEMBL document CHEMBL3407354, “Recent advances in the development of acetyl-CoA carboxylase (ACC) inhibitors for the treatment of metabolic disease” (J Med Chem, 2015):

How the values were obtained:
[1] = Intrinsic clearance in human microsomes; type: ADME
[2] = molecular target: Acetyl-CoA carboxylase 1 (Rattus norvegicus, UniProt P11497); experiment: Inhibition of rat recombinant ACC1
[3] = molecular target: T1, Acetyl-CoA carboxylase 2 (Homo sapiens, UniProt O00763); experiment: Inhibition of human ACC2 assessed as malonyl CoA formation by NADH-linked kinetic method
[4] = Lipophilicity, log D of the compound; type: physicochemical; settings: octanol/water
[5] = molecular target: Acetyl-CoA carboxylase 1 (Homo sapiens, UniProt Q13085); experiment: In vitro inhibition of human recombinant His-tagged ACC1 assessed as malonyl-CoA level
[6] = species on record: Rattus norvegicus; experiment: Reduction in fatty acid synthesis in Sprague-Dawley rat; type: functional
[7] = test system: HepG2; experiment: Inhibition of fatty acid synthesis in human HepG2 cells; type: functional, cell-based
[8] = molecular target: T1, Acetyl-CoA carboxylase 2; experiment: In vitro inhibition of human recombinant His-tagged ACC2 assessed as malonyl-CoA level

T1 sequence (O00763 whole entry): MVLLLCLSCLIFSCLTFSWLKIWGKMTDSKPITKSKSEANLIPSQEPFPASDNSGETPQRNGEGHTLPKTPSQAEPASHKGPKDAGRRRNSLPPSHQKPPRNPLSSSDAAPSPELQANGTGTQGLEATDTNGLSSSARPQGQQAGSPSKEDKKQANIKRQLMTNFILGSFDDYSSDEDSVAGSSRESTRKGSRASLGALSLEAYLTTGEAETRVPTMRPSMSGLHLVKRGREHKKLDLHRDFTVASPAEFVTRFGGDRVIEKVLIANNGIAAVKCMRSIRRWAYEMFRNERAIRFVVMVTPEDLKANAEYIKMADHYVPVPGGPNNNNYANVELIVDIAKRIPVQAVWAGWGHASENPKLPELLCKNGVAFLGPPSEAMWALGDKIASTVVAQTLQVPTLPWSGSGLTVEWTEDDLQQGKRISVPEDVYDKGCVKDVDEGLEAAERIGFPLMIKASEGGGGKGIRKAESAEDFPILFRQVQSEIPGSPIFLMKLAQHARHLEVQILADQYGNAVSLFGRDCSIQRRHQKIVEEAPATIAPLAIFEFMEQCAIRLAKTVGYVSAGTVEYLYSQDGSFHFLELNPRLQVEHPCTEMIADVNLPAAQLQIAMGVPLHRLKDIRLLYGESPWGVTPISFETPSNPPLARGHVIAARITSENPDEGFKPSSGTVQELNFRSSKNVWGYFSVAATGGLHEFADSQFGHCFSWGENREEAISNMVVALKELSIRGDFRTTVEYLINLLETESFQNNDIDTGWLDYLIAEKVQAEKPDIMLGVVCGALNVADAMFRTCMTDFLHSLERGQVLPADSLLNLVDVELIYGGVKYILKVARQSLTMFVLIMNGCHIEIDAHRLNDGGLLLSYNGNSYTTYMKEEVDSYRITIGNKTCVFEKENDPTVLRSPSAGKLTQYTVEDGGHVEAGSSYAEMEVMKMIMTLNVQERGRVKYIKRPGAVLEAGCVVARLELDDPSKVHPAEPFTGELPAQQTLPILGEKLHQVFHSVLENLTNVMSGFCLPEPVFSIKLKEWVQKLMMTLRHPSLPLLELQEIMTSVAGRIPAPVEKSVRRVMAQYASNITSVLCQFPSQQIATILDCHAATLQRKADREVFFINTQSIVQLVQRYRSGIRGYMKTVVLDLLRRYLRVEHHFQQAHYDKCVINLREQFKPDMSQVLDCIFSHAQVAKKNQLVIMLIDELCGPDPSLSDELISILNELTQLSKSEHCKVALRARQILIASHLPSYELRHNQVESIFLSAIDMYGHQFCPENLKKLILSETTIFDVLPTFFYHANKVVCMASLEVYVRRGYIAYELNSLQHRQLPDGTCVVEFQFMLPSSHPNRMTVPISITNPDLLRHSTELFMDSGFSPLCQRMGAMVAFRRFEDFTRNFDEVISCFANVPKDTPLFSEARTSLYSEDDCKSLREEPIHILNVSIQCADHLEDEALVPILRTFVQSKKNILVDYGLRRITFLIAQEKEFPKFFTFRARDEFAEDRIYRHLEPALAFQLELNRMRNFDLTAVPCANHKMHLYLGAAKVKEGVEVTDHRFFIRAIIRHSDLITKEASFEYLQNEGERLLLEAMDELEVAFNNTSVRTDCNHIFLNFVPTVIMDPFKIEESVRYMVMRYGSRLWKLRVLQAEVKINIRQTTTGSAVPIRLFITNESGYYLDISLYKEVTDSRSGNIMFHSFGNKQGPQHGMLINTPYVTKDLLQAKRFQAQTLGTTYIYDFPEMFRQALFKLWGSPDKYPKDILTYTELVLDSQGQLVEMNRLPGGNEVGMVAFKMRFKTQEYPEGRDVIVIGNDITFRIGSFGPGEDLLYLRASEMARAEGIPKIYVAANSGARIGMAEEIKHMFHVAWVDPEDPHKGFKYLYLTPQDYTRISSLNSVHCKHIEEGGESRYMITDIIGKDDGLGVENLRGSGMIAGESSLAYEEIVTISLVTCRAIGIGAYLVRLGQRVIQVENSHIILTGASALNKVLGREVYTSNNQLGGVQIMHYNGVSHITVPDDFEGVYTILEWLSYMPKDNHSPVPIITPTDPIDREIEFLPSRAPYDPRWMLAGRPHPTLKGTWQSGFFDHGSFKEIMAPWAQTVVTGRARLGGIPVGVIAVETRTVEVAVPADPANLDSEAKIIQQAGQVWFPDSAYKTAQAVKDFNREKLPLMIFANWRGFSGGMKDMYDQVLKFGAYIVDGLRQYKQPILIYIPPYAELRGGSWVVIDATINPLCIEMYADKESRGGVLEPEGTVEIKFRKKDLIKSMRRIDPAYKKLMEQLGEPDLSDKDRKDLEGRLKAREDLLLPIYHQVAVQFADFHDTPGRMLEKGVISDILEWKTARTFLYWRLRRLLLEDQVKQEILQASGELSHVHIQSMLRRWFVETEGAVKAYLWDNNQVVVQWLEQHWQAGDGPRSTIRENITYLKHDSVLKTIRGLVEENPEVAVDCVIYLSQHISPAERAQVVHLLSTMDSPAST

Structure (SMILES): Cc1cc2c(cc1C)C(=O)CC1(CCN(C(=O)c3cc(C)c4[nH]ncc4c3)CC1)O2
- CLint scaled [1]: 86 mL/min/kg
- IC50 [2]: 0.025 µM

Structure (SMILES): Cc1cc(OCC2CC2)ccc1C1CCN(c2ccc(C(C)C(=O)NC3CC3)cc2)CC1 (racemic)
- IC50 [3]: 0.08 µM

Structure (SMILES): CCOc1ccc(N2CC(Oc3ccc([C@H](C)NC(=O)c4cn[nH]c4)cc3)C2)c(C)c1
- IC50 [3]: 0.05 µM

Structure (SMILES): CC(C)(C)OC(=O)CC[C@H]1CC[C@H](CNC(=O)c2cc(-c3ccccc3)nc3ccccc23)CC1
- logD [4]: 5.9

Structure (SMILES): CC(C)(C)n1cc2c(n1)C(=O)CC1(CCN(C(=O)c3ccc4[nH]ncc4c3)CC1)O2
- logD [4]: 1.8
- CLint scaled [1]: ≤ 8 mL/min/kg

Structure (SMILES): CCOC(=O)N1CCN(c2nc(C)nc3sc4c(c23)CCCC4)CC1
- IC50 [5]: 23 µM

Structure (SMILES): COc1ccccc1[C@H](Cn1c(=O)n(C(C)(C)C(=O)O)c(=O)c2c(C)c(-c3ncco3)sc21)OC1CCOCC1 [FIRSOCOSTAT]
- ED50 [6]: < 0.3 mg/kg
- IC50 [7]: < 0.1 µM
- IC50 [5]: 0.0026 µM
- IC50 [8]: 0.0017 µM

Structure (SMILES): COc1ccccc1[C@@H](Cn1c(=O)n(C(C)(C)C(=O)O)c(=O)c2c(C)c(-c3ncco3)sc21)OC(C)C
- IC50 [7]: < 0.1 µM

Structure (SMILES): CCCOc1ccc(C2CCN(c3ccc(C(C)NC(C)=O)cc3F)CC2)c(C)c1 (racemic)
- IC50 [3]: 0.06 µM
